Common to all, as to test: relative viability (nuclei count vs DMSO), 5 days (fraction); higher = more cells survive
Compound in the experiment “NVP-TAE684 + Foretinib”: COc1cc(N2CCC(N3CCN(C)CC3)CC2)ccc1Nc1ncc(Cl)c(Nc2ccccc2S(=O)(=O)C(C)C)n1 [NVP-TAE684] + COc1cc2c(Oc3ccc(NC(=O)C4(C(=O)Nc5ccc(F)cc5)CC4)cc3F)ccnc2cc1OCCCN1CCOCC1 [Foretinib] (partner 0.25 µM)
In outline:
(§1)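 Dosing by pin tool came one day after lung cancer cell lines were seeded in 1536-well plates, using either one drug or a fixed anchor-drug dose plus five library-drug doses (not always all listed) in √10 steps. After 5 days, nuclei were counted on 4× images. Relative viability is treated-well nuclei count divided by vehicle-well nuclei count, and values are medians of duplicate plates.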

Compound in the experiment “NVP-TAE684 + Phenformin”: COc1cc(N2CCC(N3CCN(C)CC3)CC2)ccc1Nc1ncc(Cl)c(Nc2ccccc2S(=O)(=O)C(C)C)n1 [NVP-TAE684] + N=C(N)NC(=N)NCCc1ccccc1 [Phenformin] (partner 250 µM)
The method in brief: as §1

Compound in the experiment “NVP-TAE684 + Luminespib”: COc1cc(N2CCC(N3CCN(C)CC3)CC2)ccc1Nc1ncc(Cl)c(Nc2ccccc2S(=O)(=O)C(C)C)n1 [NVP-TAE684] + CCNC(=O)c1noc(-c2cc(C(C)C)c(O)cc2O)c1-c1ccc(CN2CCOCC2)cc1 [Luminespib] (partner 0.01 µM)
The method in brief: as §1

Compound in experiment [1]: C1=CC=C2C(=C1)N=C(S2)C(C#N)C3=NC(=NC=C3)NCCC4=CN=CC=C4 + CC1(C)CCC(c2ccc(Cl)cc2)=C(CN2CCN(c3ccc(C(=O)NS(=O)(=O)c4ccc(N[C@H](CCN5CCOCC5)CSc5ccccc5)c(S(=O)(=O)C(F)(F)F)c4)cc3)CC2)C1 [Navitoclax] (partner 0.5 µM)
In outline: as §1

Compound in the experiment “CUDC-101 + AZD7762”: C#Cc1cccc(Nc2ncnc3cc(OC)c(OCCCCCCC(=O)NO)cc23)c1 [CUDC-101] + NC(=O)Nc1cc(-c2cccc(F)c2)sc1C(=O)N[C@H]1CCCNC1 [AZD7762] (partner 0.2 µM)
The method in brief: as §1

Turning to NCI-H2085, the relative viability was 0.987 with NVP-TAE684 + Foretinib (first compound 0.2 µM); 0.967 with NVP-TAE684 + Foretinib (first compound 0.6325 µM); 0.485 in the experiment with NVP-TAE684 + Foretinib (first compound 2 µM); 0.753 in the experiment with NVP-TAE684 + Phenformin (first compound 0.2 µM); 0.694 with NVP-TAE684 + Phenformin (first compound 0.6325 µM); 0.694 with NVP-TAE684 + Phenformin (first compound 2 µM). The relative viability came to 0.435 in the experiment with NVP-TAE684 + Luminespib (first compound 0.2 µM); 0.39 in the experiment with NVP-TAE684 + Luminespib (first compound 0.6325 µM); 0.294 in the experiment with NVP-TAE684 + Luminespib (first compound 2 µM); 0.946 in experiment [1] (first compound 0.005 µM); 1.09 in experiment [1] (first compound 0.01581 µM); 1.09 in experiment [1] (first compound 0.05 µM). The relative viability was determined as 1.15 in experiment [1] (first compound 0.1581 µM); 0.981 in experiment [1] (first compound 0.5 µM); 0.956 with CUDC-101 + AZD7762 (first compound 0.01 µM); 1.01 with CUDC-101 + AZD7762 (first compound 0.03162 µM); 1.06 in the experiment with CUDC-101 + AZD7762 (first compound 0.1 µM); 0.922 with CUDC-101 + AZD7762 (first compound 0.3162 µM). The relative viability with CUDC-101 + AZD7762 (first compound 1 µM) amounted to 0.877.
As for NCI-H2087, the relative viability with NVP-TAE684 + Foretinib (first compound 0.2 µM) stood at 1.05; in the experiment with NVP-TAE684 + Foretinib (first compound 0.6325 µM), 1.2; with NVP-TAE684 + Foretinib (first compound 2 µM), 0.638; with NVP-TAE684 + Phenformin (first compound 0.2 µM), 0.501; in the experiment with NVP-TAE684 + Phenformin (first compound 0.6325 µM), 0.436; with NVP-TAE684 + Phenformin (first compound 2 µM), 0.33. In addition, the relative viability with NVP-TAE684 + Luminespib (first compound 0.2 µM) amounted to 0.146; with NVP-TAE684 + Luminespib (first compound 0.6325 µM), 0.205; with NVP-TAE684 + Luminespib (first compound 2 µM), 0.151; in experiment [1] (first compound 0.005 µM) it was 0.986; in experiment [1] (first compound 0.01581 µM) it was 1.01; in experiment [1] (first compound 0.05 µM), 1.16. In addition, the relative viability in experiment [1] (first compound 0.1581 µM) amounted to 1; in experiment [1] (first compound 0.5 µM) it was 0.927; with CUDC-101 + AZD7762 (first compound 0.01 µM), 1.32; with CUDC-101 + AZD7762 (first compound 0.03162 µM), 1.46; with CUDC-101 + AZD7762 (first compound 0.1 µM), 1.28; in the experiment with CUDC-101 + AZD7762 (first compound 0.3162 µM), 1.24. For the same cell line, the relative viability in the experiment with CUDC-101 + AZD7762 (first compound 1 µM) was 0.815.
Turning to NCI-H2126, the relative viability in the experiment with NVP-TAE684 + Foretinib (first compound 0.2 µM) worked out at 1.13; with NVP-TAE684 + Foretinib (first compound 0.6325 µM), 1.22; in the experiment with NVP-TAE684 + Foretinib (first compound 2 µM) it was 0.84; with NVP-TAE684 + Phenformin (first compound 0.2 µM), 0.53; in the experiment with NVP-TAE684 + Phenformin (first compound 0.6325 µM), 0.468; with NVP-TAE684 + Phenformin (first compound 2 µM), 0.361. For the same cell line, the relative viability with NVP-TAE684 + Luminespib (first compound 0.2 µM) was 0.94; with NVP-TAE684 + Luminespib (first compound 0.6325 µM) it was 0.845; with NVP-TAE684 + Luminespib (first compound 2 µM), 0.398; in experiment [1] (first compound 0.005 µM) it was 0.91; in experiment [1] (first compound 0.01581 µM) it was 0.913; in experiment [1] (first compound 0.05 µM), 0.782. The relative viability was found to be 0.831 in experiment [1] (first compound 0.1581 µM); 0.842 in experiment [1] (first compound 0.5 µM); 1.01 with CUDC-101 + AZD7762 (first compound 0.01 µM); 0.98 in the experiment with CUDC-101 + AZD7762 (first compound 0.03162 µM); 0.939 with CUDC-101 + AZD7762 (first compound 0.1 µM); 0.945 in the experiment with CUDC-101 + AZD7762 (first compound 0.3162 µM). For the same cell line, in the experiment with CUDC-101 + AZD7762 (first compound 1 µM), the relative viability worked out at 0.943.
In the case of NCI-H2170, the relative viability was 1.1 in the experiment with NVP-TAE684 + Foretinib (first compound 0.2 µM); 0.997 with NVP-TAE684 + Foretinib (first compound 0.6325 µM); 0.999 in the experiment with NVP-TAE684 + Foretinib (first compound 2 µM); 0.404 with NVP-TAE684 + Phenformin (first compound 0.2 µM); 0.364 with NVP-TAE684 + Phenformin (first compound 0.6325 µM); 0.358 with NVP-TAE684 + Phenformin (first compound 2 µM). For the same cell line, the relative viability in the experiment with NVP-TAE684 + Luminespib (first compound 0.2 µM) was determined as 0.747; with NVP-TAE684 + Luminespib (first compound 0.6325 µM), 0.618; in the experiment with NVP-TAE684 + Luminespib (first compound 2 µM), 0.663; in experiment [1] (first compound 0.01581 µM) it was 0.587; in experiment [1] (first compound 0.05 µM), 0.59; in experiment [1] (first compound 0.1581 µM), 0.626. Also, the relative viability in experiment [1] (first compound 0.5 µM) stood at 0.566; in the experiment with CUDC-101 + AZD7762 (first compound 0.01 µM), 1.07; with CUDC-101 + AZD7762 (first compound 0.03162 µM), 0.839; with CUDC-101 + AZD7762 (first compound 0.1 µM), 0.819; in the experiment with CUDC-101 + AZD7762 (first compound 0.3162 µM), 0.892; with CUDC-101 + AZD7762 (first compound 1 µM), 0.723.
Take NCI-H2347: the relative viability with NVP-TAE684 + Foretinib (first compound 0.6325 µM) stood at 1.15; with NVP-TAE684 + Foretinib (first compound 2 µM) it was 0.521; with NVP-TAE684 + Phenformin (first compound 0.2 µM), 0.252; with NVP-TAE684 + Phenformin (first compound 0.6325 µM), 0.302; with NVP-TAE684 + Phenformin (first compound 2 µM), 0.294; with NVP-TAE684 + Luminespib (first compound 0.2 µM), 0.245. The relative viability was determined as 0.264 with NVP-TAE684 + Luminespib (first compound 0.6325 µM); 0.45 in the experiment with NVP-TAE684 + Luminespib (first compound 2 µM); 0.727 in experiment [1] (first compound 0.005 µM); 0.891 in experiment [1] (first compound 0.01581 µM); 0.834 in experiment [1] (first compound 0.05 µM); 0.827 in experiment [1] (first compound 0.1581 µM). Moreover, the relative viability in experiment [1] (first compound 0.5 µM) was 0.735; with CUDC-101 + AZD7762 (first compound 0.01 µM) it was 0.934; in the experiment with CUDC-101 + AZD7762 (first compound 0.03162 µM), 0.653; in the experiment with CUDC-101 + AZD7762 (first compound 0.1 µM), 0.697; in the experiment with CUDC-101 + AZD7762 (first compound 0.3162 µM), 0.791; with CUDC-101 + AZD7762 (first compound 1 µM), 0.569.

The values are drawn from the supplement of paper PMC10307832.
